# In patent US20220362151A1, “LIPOSOME FORMULATION” (ROSI CHARNI AS, priority 2019, published 2022):
# Structures can show the parent of a compound that is named as a salt.
# Experiments:
# Solubility in solvents = type: physicochemical
# Protocol: Hydrogenated egg phosphatidylcholine (HEPC), cholesterol (CHO) and fatty acid compound (PA, N-TTA and TTA) were weighed out separately and dissolved in chloroform. N-TTA is not soluble in chloroform alone and was therefore dissolved in a 1:1 mixture of methanol and chloroform. The dissolved lipids were mixed in a molar ratio of 1.81 HEPC:1CHO and 0.5-2 PA/N-TTA/TTA in a 100 or 250 mL Duran round bottom flasks. Next, a thin lipid film was made by slowly evaporating the solvents by using Laborota 4000 rotary evaporator at light vacuum, 200 mbar, and 60 rpm for 1.5-2.5 hours depending on the volume of solvents. To ensure a solvent-free lipid film, full vacuum (0 mbar) was applied the last 30 minutes.
# (§1) As a preliminary test, NB4 was exposed to TTA, 2-tr-TTA and PA dissolved in DMSO in concentrations between 37.5 to 300 μM for 48 hours. […] It was decided to not try higher concentrations of TTA PA and 2-tr-TTA dissolved in DMSO because of DMSO's cellular toxicity. In this project, one aim was to compare TTA with N-TTA and 2-tr-N-TTA. […] Compared to DMSO-control there was no significant decrease in cell viability after treatment with B SFAs dissolved in DMSO (p>0.05).
# NB4 cell line = experiment: WST-1 viability assay, fatty acids dissolved in DMSO; type: cell-based; conditions: 48 hours
# Protocol: NB4 cells at a concentration of 0.1×10^5 cells/mL were incubated with 37.5, 75, 150 and 300 μM of TTA, 2-tr-TTA and PA dissolved in DMSO for 48 hours. Cell viability was assessed with WST-1 assay after 4 hours of incubation, and the absorption was related to the DMSO-control. Cell viability is presented as percentage of DMSO-control (100%). The assay was performed with triplicates for each concentration of the individual SBFA and the result is presented as mean of the triplicates±SD, n=1.
# as §1
Structure (SMILES),solubility in DMSO (Solubility in solvents),"solubility in chloroform (Solubility in solvents; chloroform alone, dissolved in 1:1 methanol and chloroform)","cell viability (percentage of DMSO-control), WST-1 (NB4 cell line; NB4, 37.5-300 μM dissolved in DMSO, n=1, p>0.05)","metabolic activity (WST-1), trend as presented in FIG. 1 (NB4 cell line; NB4, 37.5-300 μM in DMSO, stimulating effect especially at 75 μM)"
"CCCCCCCCCCCCCCNCC(=O)O [N-TTA, N-tetradecylglycine]",seemingly insoluble,not soluble,–,–
"CC#CCCCCCCCCCCCNCC(=O)O [2-trN-TTA, Tetradec-12-yn-1-ylglycine hydrochloride]",seemingly insoluble,–,–,–
"CC#CCCCCCCCCCCCSCC(=O)O [2-tr-TTA, 2-(Tetradec-12-yn-1-ylthio)acetic acid]",–,–,lack of significant antiproliferative effect,stimulating effect
